The values below come from patent US20250127801A1, “BRIDGED TRICYCLIC CARBAMOYLPYRIDONE COMPOUNDS AND USES THEREOF” (priority 2023, published 2025).

≈ marks a conversion by molar mass, not a printed value. Like-named read-outs stand apart in the source and are kept apart here. Some results are limits rather than exact numbers.

One data set is described as follows: physchem. As to conditions: 23 °C, thermodynamic from solid; for solubility thermodynamic: fassif; for solubility thermodynamic at 24 h: FaSSIF.
For another data set, the system named is HIV-1 (IIIB). In words: microbe, parasite or virus in culture. The class given is cell-based.
A further data set is described as follows: in vitro. As to conditions: human; for CC50 at 5 days: uninfected MT-4 cells.
[1] abbreviates: Human immunodeficiency virus 1, IIIB, MT4, 120 h, read-out: MT4 EC50 (nM).
Setting [2] is: Human immunodeficiency virus 1, MT4, 120 h, HIV-1 (IIIB) replication in MT-4 cells, 5 days incubation, Cell Titer Glo, read-out: MT4 EC50.

Usually solubility (thermodynamic) stands for the concentration in solution at equilibrium with solid. By EC50 is commonly meant the concentration that produces a half-maximal response. As to `COC1=NO[C@@]2(CC[C@H](C)N3C[C@H]2n2cc(C(=O)NCc4ccc(F)cc4F)c(=O)c(OC(=O)N(C)c4ncccc4CN(CC(=O)O)C(=O)OCOP(=O)(O)O)c2C3=O)C1` [Compound 59, N-((2-(((((3′S,5S,7′R)-10′-((2,4-difluorobenzyl)carbamoyl)-3-methoxy-3′-methyl-1′,11′-dioxo-1′,4′,5′,11′-tetrahydro-3′H,4H,7′H-spiro[isoxazole-5,6′-[2,7]methanopyrido[1,2-a][1,4]diazonin]-12′-yl)oxy)carbonyl)(methyl)amino)pyridin-3-yl)methyl)-N-(((phosphonooxy)methoxy)carbonyl)glycine], in the data set “physchem”, the solubility (thermodynamic) was 5280 µg/mL (≈ 6.01 mM). Moreover, in the data set with HIV-1 (IIIB) (setting [1]), the EC50 was 1.2 nM. The molecule also yielded a CC50 in the data set “in vitro” of 10600 nM.

With `CC1=NO[C@@]2(CC[C@H](C)N3C[C@H]2n2cc(C(=O)NCc4ccc(F)cc4F)c(=O)c(OC(=O)N(C)c4ncccc4COP(=O)(O)O)c2C3=O)C1` [Compound 1, (3′S,5S,7′R)-10′-((2,4-difluorobenzyl)carbamoyl)-3,3′-dimethyl-1′,11′-dioxo-1′,4′,5′,11′-tetrahydro-3′H,4H,7′H-spiro[isoxazole-5,6′-[2,7]methanopyrido[1,2-a][1,4]diazonin]-12′-yl methyl(3-((phosphonooxy)methyl)pyridin-2-yl)carbamate], in the data set “physchem”, the thermodynamic solubility came out at 4900 µg/mL (≈ 6.71 mM). Also, the EC50 in the data set with HIV-1 (IIIB) (setting [1]) was 3.48 nM. In “in vitro”, the CC50 was 15900 nM.

In the data set “physchem”, `CC1=NO[C@@]2(CC[C@H](C)N3C[C@H]2n2cc(C(=O)NCc4ccc(F)cc4F)c(=O)c(OCOC(=O)OCCC(C)(C)c4c(CC(=O)N[C@@H](CC(=O)O)C(=O)O)cc(C)cc4OP(=O)(O)O)c2C3=O)C1` [Compound 24, (2-(2-(4-((((((3′S,5S,7′R)-10′-((2,4-difluorobenzyl)carbamoyl)-3,3′-dimethyl-1′,11′-dioxo-1′,4′,5′,11′-tetrahydro-3′H,4H,7′H-spiro[isoxazole-5,6′-[2,7]methanopyrido[1,2-a][1,4]diazonin]-12′-yl)oxy)methoxy)carbonyl)oxy)-2-methylbutan-2-yl)-5-methyl-3-(phosphonooxy)phenyl)acetyl)-L-aspartic acid] displayed a thermodynamic solubility of 4900 µg/mL (≈ 4.95 mM). In addition, in the data set with HIV-1 (IIIB) (setting [1]), the EC50 was determined as 1.98 nM. Also, in the data set “in vitro”, the CC50 worked out at 12300 nM.

The molecule `COC1=NO[C@@]2(CC[C@H](C)N3C[C@H]2n2cc(C(=O)NCc4ccc(F)cc4F)c(=O)c(OCOC(=O)N(C)C[C@@H]4CCCN4)c2C3=O)C1` [Compound 15, (((3′S,5S,7′R)-10′-((2,4-difluorobenzyl)carbamoyl)-3-methoxy-3′-methyl-1′,11′-dioxo-1′,4′,5′,11′-tetrahydro-3′H,4H,7′H-spiro[isoxazole-5,6′-[2,7]methanopyrido[1,2-a][1,4]diazonin]-12′-yl)oxy)methyl methyl(((S)-pyrrolidin-2-yl)methyl)carbamate] registered a thermodynamic solubility at 24 h in “physchem” of 1480 µg/mL (≈ 2.19 mM). Further, the concentration giving a half-maximal response (EC50) with HIV-1 (IIIB) (setting [2]) is 1.61 nM. This molecule also showed a CC50 at 5 days in the data set “in vitro” of 14700 nM.

For the molecule `CC1=NO[C@@]2(CC[C@H](C)N3C[C@H]2n2cc(C(=O)NCc4ccc(F)cc4F)c(=O)c(OCOC(=O)N(C)c4ncccc4COP(=O)(O)O)c2C3=O)C1` [Compound 2, (((3′S,5S,7′R)-10′-((2,4-difluorobenzyl)carbamoyl)-3,3′-dimethyl-1′,11′-dioxo-1′,4′,5′,11′-tetrahydro-3′H,4H,7′H-spiro[isoxazole-5,6′-[2,7]methanopyrido[1,2-a][1,4]diazonin]-12′-yl)oxy)methyl methyl(3-((phosphonooxy)methyl)pyridin-2-yl)carbamate], the solubility (thermodynamic) at 24 h in “physchem” was 4950 µg/mL (≈ 6.51 mM). Moreover, the 50% effective concentration (EC50) in the data set on HIV-1 (IIIB) (setting [2]) is 1.49 nM. Moreover, in the data set “in vitro”, the CC50 at 5 days turned out to be 10200 nM.

`CC1=NO[C@@]2(CC[C@H](C)N3C[C@H]2n2cc(C(=O)NCc4ccc(F)cc4F)c(=O)c(OC(=O)N(C)c4ncc(C(=O)O)cc4CN(CC(=O)O)C(=O)OCOP(=O)(O)O)c2C3=O)C1` [Compound 8, 5-(((carboxymethyl)(((phosphonooxy)methoxy)carbonyl)amino)methyl)-6-(((((3′S,5S,7′R)-10′-((2,4-difluorobenzyl)carbamoyl)-3,3′-dimethyl-1′,11′-dioxo-1′,4′,5′,11′-tetrahydro-3′H,4H,7′H-spiro[isoxazole-5,6′-[2,7]methanopyrido[1,2-a][1,4]diazonin]-12′-yl)oxy)carbonyl)(methyl)amino)nicotinic acid] yielded a thermodynamic solubility in “physchem” of 4800 µg/mL (≈ 5.3 mM). For the same molecule, the EC50 with HIV-1 (IIIB) (setting [1]) is 0.982 nM. The same molecule registered a CC50 in “in vitro” of 10400 nM.

In turn, `CC1=NO[C@@]2(CC[C@H](C)N3C[C@H]2n2cc(C(=O)NCc4ccc(F)cc4F)c(=O)c(OCOC(=O)N(C)Cc4cc(C(=O)O)ccc4OP(=O)(O)O)c2C3=O)C1` [Compound 76, 3-(((((((3′S,5S,7′R)-10′-((2,4-difluorobenzyl)carbamoyl)-3,3′-dimethyl-1′,11′-dioxo-1′,4′,5′,11′-tetrahydro-3′H,4H,7′H-spiro[isoxazole-5,6′-[2,7]methanopyrido[1,2-a][1,4]diazonin]-12′-yl)oxy)methoxy)carbonyl)(methyl)amino)methyl)-4-(phosphonooxy)benzoic acid] registered a solubility (thermodynamic) in the data set “physchem” of 4060 µg/mL (≈ 5.05 mM). Besides, the half-maximal effective concentration (EC50) in the data set on HIV-1 (IIIB) (setting [1]) is 4.41 nM. The same molecule came in with a CC50 in “in vitro” of 12900 nM.

Regarding `CC1=NO[C@@]2(CC[C@H](C)N3C[C@H]2n2cc(C(=O)NCc4ccc(F)cc4F)c(=O)c(OCOC(=O)CC(C)(C)c4c(C)cc(C)cc4OP(=O)(O)O)c2C3=O)C1` [Compound 27], in “physchem”, the thermodynamic solubility was 2260 µg/mL (≈ 2.82 mM). Further, in the data set with HIV-1 (IIIB) (setting [1]), the EC50 amounted to 2.75 nM. For the same molecule, the CC50 in “in vitro” came out at 16900 nM.

In the data set “physchem”, `CC1=NO[C@@]2(CC[C@H](C)N3C[C@H]2n2cc(C(=O)NCc4ccc(F)cc4F)c(=O)c(OCOC(=O)O[C@@H]4CCCC[C@H]4OP(=O)(O)O)c2C3=O)C1` [Compound 45, (((3′S,5S,7′R)-10′-((2,4-difluorobenzyl)carbamoyl)-3,3′-dimethyl-1′,11′-dioxo-1′,4′,5′,11′-tetrahydro-3′H,4H,7′H-spiro[isoxazole-5,6′-[2,7]methanopyrido[1,2-a][1,4]diazonin]-12′-yl)oxy)methyl ((1R,2R)-2-(phosphonooxy)cyclohexyl) carbonate] gave a thermodynamic solubility at 24 h of 5320 µg/mL (≈ 7.21 mM). Moreover, in the data set with HIV-1 (IIIB) (setting [2]), the EC50 amounted to 1.73 nM. In “in vitro”, this molecule displayed a CC50 at 5 days of 11400 nM.

In the case of `CC1=NO[C@@]2(CC[C@H](C)N3C[C@H]2n2cc(C(=O)NCc4ccc(F)cc4F)c(=O)c(OCOC(=O)N(C)C[C@@H]4CCCN4)c2C3=O)C1` [Compound 13, (((3′S,5S,7′R)-10′-((2,4-difluorobenzyl)carbamoyl)-3,3′-dimethyl-1′,11′-dioxo-1′,4′,5′,11′-tetrahydro-3′H,4H,7′H-spiro[isoxazole-5,6′-[2,7]methanopyrido[1,2-a][1,4]diazonin]-12′-yl)oxy)methyl methyl(((S)-pyrrolidin-2-yl)methyl)carbamate], in the data set “physchem”, the thermodynamic solubility at 24 h amounted to 1980 µg/mL (≈ 3.02 mM). In addition, the EC50 with HIV-1 (IIIB) (setting [2]) was found to be 0.762 nM. In the data set “in vitro”, this molecule gave a CC50 at 5 days of 10800 nM.

In “physchem”, `CC1=NO[C@@]2(CC[C@H](C)N3C[C@H]2n2cc(C(=O)NCc4ccc(F)cc4F)c(=O)c(OCOC(=O)N(C)C[C@@H]4CCCN4C(=O)OCOP(=O)(O)O)c2C3=O)C1` [Compound 14, (phosphonooxy)methyl (2S)-2-(((((((3′S,5S,7′R)-10′-((2,4-difluorobenzyl)carbamoyl)-3,3′-dimethyl-1′,11′-dioxo-1′,4′,5′,11′-tetrahydro-3′H,4H,7′H-spiro[isoxazole-5,6′-[2,7]methanopyrido[1,2-a][1,4]diazonin]-12′-yl)oxy)methoxy)carbonyl)(methyl)amino)methyl)pyrrolidine-1-carboxylate] showed a thermodynamic solubility at 24 h of 5090 µg/mL (≈ 6.28 mM). Further, the concentration giving a half-maximal response (EC50) with HIV-1 (IIIB) (setting [2]) was found to be 1.25 nM. Also, the CC50 at 5 days in the data set “in vitro” was 16800 nM.

On to `CC1=NO[C@@]2(CC[C@H](C)N3C[C@H]2n2cc(C(=O)NCc4ccc(F)cc4F)c(=O)c(OC(=O)N(C)c4ncccc4CN(CC(=O)O)C(=O)OCOP(=O)(O)O)c2C3=O)C1` [Compound 6, N-((2-(((((3′S,5S,7′R)-10′-((2,4-difluorobenzyl)carbamoyl)-3,3′-dimethyl-1′,11′-dioxo-1′,4′,5′,11′-tetrahydro-3′H,4H,7′H-spiro[isoxazole-5,6′-[2,7]methanopyrido[1,2-a][1,4]diazonin]-12′-yl)oxy)carbonyl)(methyl)amino)pyridin-3-yl)methyl)-N-(((phosphonooxy)methoxy)carbonyl)glycine], for which the thermodynamic solubility in the data set “physchem” is 4810 µg/mL (≈ 5.58 mM). Moreover, the EC50 in the data set with HIV-1 (IIIB) (setting [1]) was 0.917 nM. The molecule further had a CC50 in the data set “in vitro” of 10100 nM.

With `CC1=NO[C@@]2(CC[C@H](C)N3C[C@H]2n2cc(C(=O)NCc4ccc(F)cc4F)c(=O)c(OC(=O)N(C)c4ncccc4CN(CC(=O)OCc4ccccc4)C(=O)OCOP(=O)(O)O)c2C3=O)C1` [Compound 33, benzyl N-((2-(((((3′S,5S,7′R)-10′-((2,4-difluorobenzyl)carbamoyl)-3,3′-dimethyl-1′,11′-dioxo-1′,4′,5′,11′-tetrahydro-3′H,4H,7′H-spiro[isoxazole-5,6′-[2,7]methanopyrido[1,2-a][1,4]diazonin]-12′-yl)oxy)carbonyl)(methyl)amino)pyridin-3-yl)methyl)-N-(((phosphonooxy)methoxy)carbonyl)glycinate], the solubility (thermodynamic) in the data set “physchem” turned out to be 4170 µg/mL (≈ 4.38 mM). Further, in the data set on HIV-1 (IIIB) (setting [1]), the EC50 turned out to be 2.34 nM. For the same molecule, the CC50 in the data set “in vitro” turned out to be 12900 nM.

Molecule `CC1=NO[C@@]2(CC[C@H](C)N3C[C@H]2n2cc(C(=O)NCc4ccc(F)cc4F)c(=O)c(OCOC(=O)N4CCOC[C@@H]4COP(=O)(O)O)c2C3=O)C1` [Compound 63, (((3′S,5S,7′R)-10′-((2,4-difluorobenzyl)carbamoyl)-3,3′-dimethyl-1′,11′-dioxo-1′,4′,5′,11′-tetrahydro-3′H,4H,7′H-spiro[isoxazole-5,6′-[2,7]methanopyrido[1,2-a][1,4]diazonin]-12′-yl)oxy)methyl (3R)-3-((phosphonooxy)methyl)morpholine-4-carboxylate] registered a solubility (thermodynamic) in the data set “physchem” of 5000 µg/mL (≈ 6.76 mM). Besides, in the data set with HIV-1 (IIIB) (setting [1]), the EC50 was 18.7 nM. In addition, in the data set “in vitro”, the CC50 was no less than 50000 nM.
